# Experimental data reported in PubChem BioAssay (NCI).
#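 Values below derive from 48-hour exposures of cells grown in 96-well plates, with endpoints linearly interpolated between the two concentrations bracketing the appropriate inhibition level. Abbreviation: GI50, concentration required for 50% inhibition of growth. TGI: concentration producing complete growth inhibition.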
# Key:
# Experiment in all cases: inhibition of tumour cell growth, NCI panel, 48 h
# BT-549 breast = tested on: BT-549 breast
# HCT-15 colon = tested on: HCT-15 colon
# SF-539 CNS = tested on: SF-539 CNS
# CCRF-CEM leukemia = tested on: CCRF-CEM leukemia
# HCC-2998 colon = tested on: HCC-2998 colon
# HOP-92 NSCLC = tested on: HOP-92 NSCLC
# IGROV1 ovarian = tested on: IGROV1 ovarian
# A498 renal = tested on: A498 renal
# HL-60(TB) leukemia = tested on: HL-60(TB) leukemia
# NCI-H226 lung = tested on: NCI-H226 lung
# OVCAR-4 ovarian = tested on: OVCAR-4 ovarian
# EKVX NSCLC = tested on: EKVX NSCLC
# TK-10 renal = tested on: TK-10 renal
# SN12C renal = tested on: SN12C renal
# HOP-62 NSCLC = tested on: HOP-62 NSCLC
# A549 NSCLC = tested on: A549 NSCLC
# NCI-H460 lung = tested on: NCI-H460 lung
# HCT-116 colon = tested on: HCT-116 colon
# SK-OV-3 ovarian = tested on: SK-OV-3 ovarian
# MCF7 breast = tested on: MCF7 breast
# MOLT-4 leukemia = tested on: MOLT-4 leukemia
# SK-MEL-2 melanoma = tested on: SK-MEL-2 melanoma
# MDA-MB-231 breast = tested on: MDA-MB-231 breast
# MALME-3M melanoma = tested on: MALME-3M melanoma
# NCI/ADR-RES ovarian = tested on: NCI/ADR-RES ovarian
# NCI-H522 lung = tested on: NCI-H522 lung
# PC-3 prostate = tested on: PC-3 prostate
# UACC-257 melanoma = tested on: UACC-257 melanoma
# K-562 leukemia = tested on: K-562 leukemia
# SF-268 CNS = tested on: SF-268 CNS
# KM12 colon = tested on: KM12 colon
# UACC-62 melanoma = tested on: UACC-62 melanoma
# U251 CNS = tested on: U251 CNS
# OVCAR-3 ovarian = tested on: OVCAR-3 ovarian
# COLO 205 colon = tested on: COLO 205 colon
# SNB-75 CNS = tested on: SNB-75 CNS
# HT29 colon = tested on: HT29 colon
# CAKI-1 renal = tested on: CAKI-1 renal
# LOX IMVI melanoma = tested on: LOX IMVI melanoma
# RPMI-8226 leukemia = tested on: RPMI-8226 leukemia
# NCI-H23 lung = tested on: NCI-H23 lung
# HS 578T breast = tested on: HS 578T breast
# 786-0 renal = tested on: 786-0 renal
# SR leukemia = tested on: SR leukemia
# SK-MEL-5 melanoma = tested on: SK-MEL-5 melanoma
# T-47D breast = tested on: T-47D breast
# UO-31 renal = tested on: UO-31 renal
# M14 melanoma = tested on: M14 melanoma
# SNB-19 CNS = tested on: SNB-19 CNS
# ACHN renal = tested on: ACHN renal
# DU-145 prostate = tested on: DU-145 prostate
# SK-MEL-28 melanoma = tested on: SK-MEL-28 melanoma
# SF-295 CNS = tested on: SF-295 CNS
# MDA-MB-435 = tested on: MDA-MB-435
# OVCAR-8 ovarian = tested on: OVCAR-8 ovarian
# RXF 393 renal = tested on: RXF 393 renal
smiles,measurement,setting,value
COc1ccc(C(O)c2cc3c(N)c(C(=O)Nc4cccc(OC)c4)sc3nc2C)cc1 (configuration not stated),GI50,BT-549 breast,1230 nM
same,TGI,BT-549 breast,3220 nM
same,GI50,HCT-15 colon,1000 nM
same,TGI,HCT-15 colon,2510 nM
same,GI50,SF-539 CNS,1260 nM
same,TGI,SF-539 CNS,3030 nM
same,GI50,CCRF-CEM leukemia,1310 nM
same,TGI,CCRF-CEM leukemia,4640 nM
same,GI50,HCC-2998 colon,871 nM
same,TGI,HCC-2998 colon,1630 nM
same,GI50,HOP-92 NSCLC,> 50000 nM
same,TGI,HOP-92 NSCLC,> 50000 nM
same,GI50,IGROV1 ovarian,1170 nM
same,TGI,IGROV1 ovarian,3460 nM
same,GI50,A498 renal,> 50000 nM
same,TGI,A498 renal,> 50000 nM
same,GI50,HL-60(TB) leukemia,1350 nM
same,TGI,HL-60(TB) leukemia,> 50000 nM
same,GI50,NCI-H226 lung,4010 nM
same,TGI,NCI-H226 lung,36800 nM
same,GI50,OVCAR-4 ovarian,2170 nM
same,TGI,OVCAR-4 ovarian,> 50000 nM
same,GI50,EKVX NSCLC,1600 nM
same,TGI,EKVX NSCLC,> 50000 nM
same,GI50,TK-10 renal,5990 nM
same,TGI,TK-10 renal,> 50000 nM
same,GI50,SN12C renal,1240 nM
same,TGI,SN12C renal,3380 nM
same,GI50,HOP-62 NSCLC,1940 nM
same,TGI,HOP-62 NSCLC,> 50000 nM
same,GI50,A549 NSCLC,5460 nM
same,TGI,A549 NSCLC,> 50000 nM
same,GI50,NCI-H460 lung,1970 nM
same,TGI,NCI-H460 lung,> 50000 nM
same,GI50,HCT-116 colon,242 nM
same,TGI,HCT-116 colon,953 nM
same,GI50,SK-OV-3 ovarian,11500 nM
same,TGI,SK-OV-3 ovarian,> 50000 nM
same,GI50,MCF7 breast,289 nM
same,TGI,MCF7 breast,> 50000 nM
same,GI50,MOLT-4 leukemia,1430 nM
same,TGI,MOLT-4 leukemia,4590 nM
same,GI50,SK-MEL-2 melanoma,49800 nM
same,TGI,SK-MEL-2 melanoma,> 50000 nM
same,GI50,MDA-MB-231 breast,1390 nM
same,TGI,MDA-MB-231 breast,3970 nM
same,GI50,MALME-3M melanoma,1910 nM
same,TGI,MALME-3M melanoma,28900 nM
same,GI50,NCI/ADR-RES ovarian,1380 nM
same,TGI,NCI/ADR-RES ovarian,3960 nM
same,GI50,NCI-H522 lung,1430 nM
same,TGI,NCI-H522 lung,4940 nM
same,GI50,PC-3 prostate,1150 nM
same,TGI,PC-3 prostate,3040 nM
same,GI50,UACC-257 melanoma,1740 nM
same,TGI,UACC-257 melanoma,> 50000 nM
same,GI50,K-562 leukemia,1200 nM
same,TGI,K-562 leukemia,7200 nM
same,GI50,SF-268 CNS,1770 nM
same,TGI,SF-268 CNS,37900 nM
same,GI50,KM12 colon,1030 nM
same,TGI,KM12 colon,2410 nM
same,GI50,UACC-62 melanoma,1160 nM
same,TGI,UACC-62 melanoma,3070 nM
same,GI50,U251 CNS,1340 nM
same,TGI,U251 CNS,7370 nM
same,GI50,OVCAR-3 ovarian,1260 nM
same,TGI,OVCAR-3 ovarian,3230 nM
same,GI50,COLO 205 colon,1750 nM
same,TGI,COLO 205 colon,> 50000 nM
same,GI50,SNB-75 CNS,12200 nM
same,TGI,SNB-75 CNS,> 50000 nM
same,GI50,HT29 colon,1360 nM
same,TGI,HT29 colon,3700 nM
same,GI50,CAKI-1 renal,1530 nM
same,TGI,CAKI-1 renal,5270 nM
same,GI50,LOX IMVI melanoma,879 nM
same,TGI,LOX IMVI melanoma,1640 nM
same,GI50,RPMI-8226 leukemia,174 nM
same,TGI,RPMI-8226 leukemia,809 nM
same,GI50,NCI-H23 lung,1200 nM
same,TGI,NCI-H23 lung,3290 nM
same,GI50,HS 578T breast,1650 nM
same,TGI,HS 578T breast,4670 nM
same,GI50,786-0 renal,1140 nM
same,TGI,786-0 renal,2790 nM
same,GI50,SR leukemia,301 nM
same,TGI,SR leukemia,7510 nM
same,GI50,SK-MEL-5 melanoma,1690 nM
same,TGI,SK-MEL-5 melanoma,5420 nM
same,GI50,T-47D breast,3830 nM
same,TGI,T-47D breast,> 50000 nM
same,GI50,UO-31 renal,838 nM
same,TGI,UO-31 renal,1720 nM
same,GI50,M14 melanoma,1280 nM
same,TGI,M14 melanoma,4650 nM
same,GI50,SNB-19 CNS,1990 nM
same,TGI,SNB-19 CNS,> 50000 nM
same,GI50,ACHN renal,1210 nM
same,TGI,ACHN renal,3150 nM
same,GI50,DU-145 prostate,2070 nM
same,TGI,DU-145 prostate,> 50000 nM
same,GI50,SK-MEL-28 melanoma,1580 nM
same,TGI,SK-MEL-28 melanoma,4940 nM
same,GI50,SF-295 CNS,1420 nM
same,TGI,SF-295 CNS,4500 nM
same,GI50,MDA-MB-435,1110 nM
same,TGI,MDA-MB-435,2180 nM
same,GI50,OVCAR-8 ovarian,1570 nM
same,TGI,OVCAR-8 ovarian,> 50000 nM
same,GI50,RXF 393 renal,1010 nM
same,TGI,RXF 393 renal,2310 nM
